Measurements as given in paper PMC8145596, “Novel Chemically Modified Curcumin (CMC) Derivatives Inhibit Tyrosinase Activity and Melanin Synthesis in B16F10 Mouse Melanoma Cells” (Biomolecules, 2021).
“Also recorded” adds a separate entry of the source. Read-outs that look alike come from different tables or passages of the source.

What was measured:
[1] = system: tyrosinase activity in B16F10 cells; experiment: Intracellular tyrosinase activity in B16F10 cell lysates; format: cell-based, mouse; settings: 48 h
Experimental: B16F10 cells (4 × 10^4 cells/well in 1 mL medium) were cultured in 24-well plates for 24 h. After that, the medium was replaced by fresh medium containing the compounds, and further incubated for 48 h. At the end of treatments, the cells were harvested, and cell pellets were washed in PBS and lysed and then centrifuged. Lysates (50 µL) were then aliquoted in a 96-well plate and 150 µL of 3 mM L-DOPA was added. The absorbance was measured at 475 nm every 30 s for 40 min at 30 °C using a microplate reader in the kinetic mode. The tyrosinase activity was calculated from the slope of the linear range of the velocity in the presence of each test compound and normalized to the total protein content and reported as % of control.

mushroom tyrosinase = mushroom tyrosinase (Agaricus bisporus, UniProt C7FF04); experiment: Diphenolase activity assay of mushroom tyrosinase (L-DOPA substrate); format: biochemical; settings: for mechanism of inhibition of diphenolase activity: L-B and Dixon plots, nonlinear curve fitting; for Ki: read-out: apparent Ki, diphenolase (L-DOPA); for diphenolase inhibitory potency: compared with CMC2.24
Experimental: The direct effects of the compounds on the diphenolase activity of tyrosinase were tested using mushroom tyrosinase with a fixed concentration of L-DOPA as the substrate. Briefly, 80 µL of each compound prepared at different concentrations in 50 mM sodium phosphate buffer (pH 6.8) was added to wells of a 96-well microplate, followed by 100 µL of freshly prepared substrate solution (3 mM L-DOPA in buffer). The reaction was initiated by adding 20 µL of mushroom tyrosinase (final concentration of enzyme in wells was 3.5 µg/mL). The production of Dopachrome was monitored by measuring the absorbance at 475 nm every 30 s for a period of 30 min at 30 °C, using a microplate reader in the kinetic mode. The slopes of the plots of absorbance vs. time were calculated for comparison of enzyme activity in the presence of each of the inhibitors to that of the inhibitor-free control.
In order to study the mechanism of inhibition of tyrosinase activity by the compounds as a function of substrate concentration, we conducted a kinetic study of monophenolase and diphenolase activities at multiple concentrations of substrates. For the monophenolase activity assay, the final concentration of enzyme was 12.5 µg/mL and the final substrate concentrations were 0.125, 0.25, 0.5 and 1 mM, while for diphenolase activity assay, the final concentration of enzyme was 3.5 µg/mL and the final substrate concentrations ranged from 0.1–3 mM. The slopes from the linear range of the progress curves of absorbance at 475 nm vs. time were recorded as apparent velocities and the reciprocal values, 1/v, were plotted as functions of the reciprocal values of the substrate concentrations at different fixed inhibitor concentrations according to the method of Lineweaver and Burk (L-B). Dixon plots of the reciprocal velocity values, (1/v), as functions of the inhibitor concentrations at different fixed substrate concentrations were also constructed to investigate further the apparent mode of inhibition by the compounds.
We have also analyzed the inhibition data using nonlinear curve fitting algorithms which are more robust than the linearized L-B and Dixon plotting methods that can weigh the data from evenly spaced concentrations disproportionately. The inhibition constants were calculated by non-linear least squares curve fitting using a modified Levenberg-Marquardt algorithm and data was fitted to models of pure competitive, noncompetitive, and uncompetitive inhibition using Enzfitter software (version 2.0, Biosoft, Cambridge, UK). This analysis was undertaken to assess the apparent potency of compounds, PC, CMC2.24, and CMC2.23 for each putative mode of inhibition.

[2] = system: tyrosinase activity in B16F10 cells; experiment: Recovery study of intracellular tyrosinase activity; format: cell-based, mouse
Experimental: In order to establish reversibility of tyrosinase inhibition by the CMCs, we conducted a recovery study for 48 h using the highest concentrations of the compounds that produced maximum inhibition of tyrosinase activity. B16F10 cells were plated in six-well plates at 3.5 × 10^4 cells/well and then compounds were added the next day. Tyrosinase activity was estimated after 48 h exposure in cellular lysates and another set of cultures were continued with fresh medium without the compounds to study the recovery of tyrosinase activity for 48 h. Results are expressed as % tyrosinase activity for both 48 h exposure and 48 h recovery.

[3] = DPPH radical scavenging antioxidant assay; settings: 60 μM DPPH, 30 min
Experimental: Melanin production catalyzed by the tyrosinase pathway is often associated with higher levels of oxidative stress and reactive oxygen species (ROS) generation. […] DPPH (2,2-Diphenyl-1-picrylhydrazyl) is a stable free radical which changes color from purple to yellow upon reduction by antioxidant compounds. Briefly, 180 µL of DPPH reagent that was prepared in methanol was combined with 20 µL of different concentrations of the compounds in a 96-well plate to give a final DPPH concentration of 60 μM in each well. A control group consisted of DPPH only while ascorbic acid (AA) at 20 µM was used as a positive control. The plate was covered and incubated for 30 min, after which the absorbance was read at 517 nm and the DPPH radical scavenging activity was reported as % of control.

[4] = system: B16F10 mouse melanoma cells; experiment: MTS cell viability assay; format: cell-based; settings: for cell viability / cytotoxicity: 48 h; for cell viability: B16F10; for cytotoxicity: B16F10, full concentration range
Experimental: B16F10 mouse melanoma cells (CRL-6475™) were obtained from American Type Culture Collection (ATCC, Manassas, VA, USA) and cultured using Dulbecco’s Modified Eagle Medium (DMEM) supplemented with 10% heat-inactivated fetal bovine serum (HI-FBS) and 1% antibiotics (penicillin-streptomycin) in a humidified incubator with 95% air—5% CO2 at 37 °C. In order to test the four CMCs (CMC2.14, CMC2.24, CMC2.5 and CMC2.23) to that of PC, for their effects on melanin content, we first screened them for cytotoxicity using a tetrazolium assay with MTS (Promega CellTiter Aqueous One). Briefly, B16F10 cells were seeded at 4 × 10^3 cells/well in a 96-well plate for 24 h. The compounds were diluted using culture medium to yield a final DMSO in all groups of 0.16% and added to the cell monolayers in wells after 24 h. Control was treated with 0.16% DMSO. At the end of 48 h, the medium was aspirated and replaced by 100 μL of fresh medium. 20 μL of MTS reagent was then added, and the plate was incubated at 37 °C for 40 min. At this point, the absorbance of 100 μL aliquots was read at 490 nm using a microplate reader. Cell viability was calculated from the absorbance values relative to control groups and expressed in %.

[5] = Mus musculus, B16-F10, 48 h, read-out: loss of tyrosinase activity after 48 h exposure (recovery study)

Chain of mushroom tyrosinase (C7FF04 1-392): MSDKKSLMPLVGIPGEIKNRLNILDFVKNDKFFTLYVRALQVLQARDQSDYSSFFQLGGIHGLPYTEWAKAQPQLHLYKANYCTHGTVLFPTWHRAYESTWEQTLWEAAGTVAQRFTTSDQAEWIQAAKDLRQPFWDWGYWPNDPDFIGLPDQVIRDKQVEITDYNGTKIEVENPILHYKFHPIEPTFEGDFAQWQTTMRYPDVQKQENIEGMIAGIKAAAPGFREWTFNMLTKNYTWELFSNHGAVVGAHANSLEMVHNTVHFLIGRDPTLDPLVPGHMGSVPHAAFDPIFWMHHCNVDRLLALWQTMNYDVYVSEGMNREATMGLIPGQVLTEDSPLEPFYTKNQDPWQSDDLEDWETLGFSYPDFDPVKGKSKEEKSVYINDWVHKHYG

Molecule | suppression of intracellular tyrosinase activity ([1]; 10 µM) | mechanism of inhibition of diphenolase activity (mushroom tyrosinase) | Vmax, diphenolase (L-DOPA) (mushroom tyrosinase; competitive model fit) | Vmax, diphenolase (L-DOPA) (mushroom tyrosinase; noncompetitive model fit) | Vmax, diphenolase (L-DOPA) (mushroom tyrosinase; uncompetitive model fit) | tyrosinase activity after 48 h recovery in compound-free medium ([2]; after exposure to 10 µM) | DPPH radical scavenging activity [3] | suppression of intracellular tyrosinase activity ([1]; 20 µM) | suppression of intracellular tyrosinase activity ([1]; 25 µM) | diphenolase inhibitory potency (mushroom tyrosinase) | inhibition at 20 µM [2, 5] | cytotoxicity [4] | suppression of intracellular tyrosinase activity ([1]; 5 µM) | further results
1,7-bis(4-hydroxy-3-methoxyphenyl)-1,6-heptadien-3,5-dione [PC, reference compound] | 47.85% | not a pure competitive inhibitor; also recorded: mixed inhibitor | 44.67 mM/min | 48.28 mM/min | 47.52 mM/min | did not differ from that of the control group | high radical scavenging activity |  |  |  |  |  |  | inhibition of diphenolase activity (mushroom tyrosinase; 5 μM compound): 14.47%; inhibition of diphenolase activity (mushroom tyrosinase; 10 μM compound): 12.41%; inhibition of diphenolase activity (mushroom tyrosinase; 20 μM compound): 14.19%; inhibition of diphenolase activity (mushroom tyrosinase; 25 μM compound): 16.39%; Ki (mushroom tyrosinase; fit to pure competitive inhibition): 45.1 µM; Ki (mushroom tyrosinase; fit to pure noncompetitive inhibition): 164 µM; Ki (mushroom tyrosinase; fit to pure uncompetitive inhibition): 129 µM; IC50 (mushroom tyrosinase; fixed substrate concentration (L-DOPA), read-out: IC50 for Diphenolase inhibition): 299 ± 35.6 µM; inhibition ([2]; 10 µM, read-out: loss of tyrosinase activity after 48 h exposure (recovery study)): 89.5%; cell viability ([4]; 20 µM): 29.47%; cell viability ([4]; 25 µM): 30.83%; concentrations with significant cytotoxicity ([4]; B16F10, 48 h): > 10 µM
COC(=O)/C(C(=O)/C=C/c1ccc(O)c(OC)c1)=C(O)\C=C\c1ccc(O)c(OC)c1 [CMC2.5, 4-methoxycarbonyl curcumin] | 19.98% |  |  |  |  |  | significant radical scavenging activity | 23.16% | 26% | somewhat weaker inhibitory potency | 42.5% | nontoxic over the full concentration range |  | tyrosinase activity after 48 h recovery in compound-free medium ([2]; after exposure to 20 µM): 100%
COC(=O)/C(C(=O)/C=C/c1ccc(O)cc1)=C(O)\C=C\c1ccc(O)cc1 [CMC2.14] | 50.31% |  |  |  |  | 100% | did not demonstrate such activity |  |  | somewhat weaker inhibitory potency |  |  | 47.96% | inhibition at 10 µM ([2]; Mus musculus, B16-F10, 48 h, 10 µM, read-out: loss of tyrosinase activity after 48 h exposure (recovery study)): 74.8%
COc1cc(/C=C/C(=O)/C(C(=O)Nc2ccccc2)=C(O)/C=C/c2ccc(O)c(OC)c2)ccc1O [CMC2.23] | 30.04% | mixed mechanism of inhibition; also recorded: mixed, but predominantly competitive, mode of inhibition | 38.0 mM/min | 39.05 mM/min | 39.0 mM/min |  | significant radical scavenging activity | 44.64% | 51.47% | somewhat weaker inhibitory potency | 52.7% | nontoxic over the full concentration range |  | 
O=C(/C=C/c1ccc(O)cc1)/C(C(=O)Nc1ccccc1)=C(O)/C=C/c1ccc(O)cc1 [CMC2.24] | 53.76% | mixed mode of inhibition with a predominantly competitive mechanism | 36.0 mM/min | 43.69 mM/min | 41.99 mM/min |  | did not demonstrate such activity | 64.25% | 68.81% |  | 73.3% | nontoxic over the full concentration range | 38.6% | inhibition at 20 µM (mushroom tyrosinase; 20 μM compound): 35.4%; inhibition at 25 µM (mushroom tyrosinase; 25 μM compound): 38.2%
